In ChEMBL document CHEMBL3886228, “Substituted benzopiperazines as CETP inhibitors” (2015):

Molecular target: T1, Cholesteryl ester transfer protein (Homo sapiens, UniProt P11597)
T1 sequence (P11597 whole entry): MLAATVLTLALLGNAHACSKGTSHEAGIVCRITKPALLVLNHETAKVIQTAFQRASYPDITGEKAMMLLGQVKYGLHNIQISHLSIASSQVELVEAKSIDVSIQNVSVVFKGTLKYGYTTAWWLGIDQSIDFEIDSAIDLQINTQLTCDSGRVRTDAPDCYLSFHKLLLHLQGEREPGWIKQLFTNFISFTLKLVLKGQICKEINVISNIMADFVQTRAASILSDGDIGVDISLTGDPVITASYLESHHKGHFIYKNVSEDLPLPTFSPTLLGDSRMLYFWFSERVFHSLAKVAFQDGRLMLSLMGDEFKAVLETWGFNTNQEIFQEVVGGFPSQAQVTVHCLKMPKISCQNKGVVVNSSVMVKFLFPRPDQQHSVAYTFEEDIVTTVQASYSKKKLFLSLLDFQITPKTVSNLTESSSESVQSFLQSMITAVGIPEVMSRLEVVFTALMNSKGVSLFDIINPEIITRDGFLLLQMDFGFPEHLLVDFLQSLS
Experiment: Scintillation Proximity Assay (SPA): First, low density lipoprotein (LDL) (Meridian) was biotinylated by incubating LDL with biotin for 1 hour on ice, after which it was dialyzed to remove free biotin. Then compounds at varying concentrations were incubated with 15 nM CETP (reagent production group, In Vitro Pharmacology, MRL Rahway) and 50 ug/ml of the biotinylated LDL in 50 mM HEPES, 150 mM NaCl, pH 7.4, for 1 hour at 37° C. The reaction was started by adding 3H-cholesterol ester high density lipoprotein (HDL) (American Radiochemicals Corp) at a concentration of ~0.6 nM. The reaction proceeded for 2 hours at 37° C., after which time it was quenched by the addition of 12% acetic acid. PVT streptavadin-coated scintillation proximity beads, which had been brought to room temperature, were then added at a concentration of 4 mg/ml. The assay was then mixed and counted after one half hour in a Microbeta plate reader.

Row | SMILES | IC50 [nM]
1 | COc1cccc(CN2C[C@@H](c3cccc(C(F)(F)F)c3)N(C[C@@H](O)C(F)(F)F)c3ccccc32)n1 | 630
2 | O[C@H](CN1c2ccccc2N(Cc2cccc(OC(F)(F)F)c2)C[C@H]1c1cccc2ccccc12)C(F)(F)F | 1430
3 | CC(C)Oc1cccc(CN2C[C@@H](c3cccc(C(F)(F)F)c3)N(C[C@@H](O)C(F)(F)F)c3ccccc32)n1 | 750
4 | CCOc1cccc(CN2C[C@@H](c3cccc(C(F)(F)F)c3)N(C[C@@H](O)C(F)(F)F)c3ccccc32)n1 | 310
5 | COc1cccnc1CN1C[C@@H](c2cccc(C(F)(F)F)c2)N(C[C@@H](O)C(F)(F)F)c2ccccc21 | 210
6 | Cc1cc(CN2C[C@@H](c3cccc(C(F)(F)F)c3)N(C[C@@H](O)C(F)(F)F)c3ccccc32)cc(Cl)n1 | 67
